# Laboratory results reported in patent publication US20030129255A1, “Colloidal silver suspension for treating skin problems in tropical and decorative fish” (priority 2002, published 2003).
# Tested on: nitrifying bacteria
# Experimental: In accordance with the present invention, a method of treating skin problems in fish comprises adding a teaspoon (5 ml) of a suspension of colloidal silver in which the concentration of silver ranges between 6 ppm and 12 ppm (parts per million) to 10 gallons of water in an aquarium every other day and then changing 50% of the water once a week, so that the water to which the fish to be treated are exposed has a silver concentration initially in the range of 0.77 ppb to 1.5 ppb (parts per billion).
substance,measurement,value
colloidal silver,survival of nitrifying bacteria,some nitrifying bacteria can survive this treatment
